Results taken from US12357695B2, “Peptides and nanoparticles for intracellular delivery of molecules” (AADIGEN, LLC, priority 2019, dated 2025).
Square brackets hold non-standard residues; d marks the D form. Ends that are not written are not given here. Stearyl = stearyl group covalently linked to the N-terminus; Aun = NCCCCCCCCCCC(=O)O; βAla = NCCC(=O)O

Assays:
mice = assay: In vivo delivery of pGL4 plasmid DNA, intravenous administration, bioluminescence imaging; details: 5 μg pGL4 plasmid; for increase of luciferase expression / efficiency relative to ADGN-100: all / different tissues
Method: FIGS. 6A-6C show the potency of ADGN-peptide variants for in vivo delivery of Luciferase expressing plasmid pGL4 via intravenous administration in mice. ADGN-peptide/pGL4 particles containing 5 μg plasmid DNA were formed in sterile water, and then diluted in 5% sucrose. Mice received IV injection of 100 μl ADGN-peptide/plasmid complexes. pGL4 Luciferase expression was monitored by bioluminescence imaging after 12 h, 24h, 48h and 72h. […] Results were then expressed as values relative to day 0.
Stable ADGN-peptides/pGL4.11 DNA were evaluated for in vivo delivery of Luciferase mRNA via intravenous and intramuscular administrations. Animals were treated with single dose of pGL4.11 plasmid DNA of 5 μg. via IV and 2.5 μg via intramuscular administration.
pGL4.11 DNA plasmid (5 μg) in sterile water (GIBCO) were mixed with ADGN peptide (sterile water), volume for each sample was adjusted to 100 μl, with sterile water containing 5% Sucrose. Samples were mixed gently with vortex for 1 minute at low speed and incubated for 30 min at room temperature. Samples were filtered on 0.45 μm PES filters prior administration. For IV administration Mice received 100 μl IV injection of either ADGN-106/pGL4, ADGN-100/pGL4, ADGN-100RI/pGL4, ADGN-100-stearyl/PGL4, ADGN-100Hydro1/PGL4, ADGN-100Hydro2/PGL4, ADGN100 Hydro6/PGL4 or ADGN/PGL4 complexes containing 10% or 20% of ADGN-100PEG (3 animals per group). As control, mice from group 3 (2 animals per group) received IV injection of 100 μl of naked pGL4 plasmids (5 μg).
Luciferase expression was monitored by bioluminescence. Bioluminescence imaging was performed after 12, 24, 48 and 72 hrs. Mice received an i.p. injection of 150 μg/g luciferin for noninvasive bioluminescence imaging (IVIS Kinetic; PerkinElmer, Waltham, MA, USA).

A375/Luc cells = assay: Cellular delivery of siRNA targeting Luciferase, luciferase silencing at 48 hrs; format: cell-based; details: for reduction of ADGN-100 or ADGN-106 efficiency by modification / reduction of level of luciferase (siRNA mediated silencing): absence of serum treatment; for reduction of efficiency / siRNA mediated luciferase silencing in the presence of serum: complexes incubated 3 hrs in 25% serum; for reduction of luciferase expression level: presence of serum
Method: FIGS. 3A-3C show luciferase expression in A375/Luc cells treated with ADGN-peptide/siRNA complexes. A375/Luc cells cultured in 48 well plates were transfected with ADGN-peptide nanoparticles. ADGN-100, ADGN-106, ADGN-100RI, ADGN-106RI, ADGN-100 Stearyl, ADGN-Hydro1, ADGN-Hydro2, ADGN-Hydro3, ADGN-Hydro4, ADGN-Hydro5, ADGN-Hydro6 and ADGN-peptide/ADGN-100PEG 10% nanoparticles containing 10 nM or 25 nM siRNA were formed in sterile water, diluted in sterile water containing 5% Sucrose and filtered with 0.45 μm PES filters. FIG. 3C impact of peGylated ADGN-100 on the transfection efficiency. siRNA Luc (10 nM and 25 nM) were associated to ADGN-100 solution containing 5 to 50% of ADGN-100-PEG or to ADGN-100PEG. ADGN/siRNA complexes were incubated for 3 hrs in the presence of 25% serum prior transfection. Luciferase expression was monitored 48 hours post transfection and results were reported as RLU (luminescence):mg of protein.
Complex formation with siRNA. The following protocols were used for the transfection of 2-5 106 Cells or Cells at confluency of about 70-80% cultured in 24 well plates. ADGN peptide/siRNA Luc particles were prepared at a 20:1 molar ratio of ADGN-Peptide/pGL4. using 20 nM siRNA. The siRNA duplex (10 and 25 nM) was diluted in 20 μl of sterile water (GIBCO) at room temperature. 1.5 or 3 μl of a Final Peptide Solution (55 μM) was added to obtain a total volume of 20 μl. The volume was adjusted to 50 μl with sterile water and was mixed gently with vortex 1 min low speed and incubated 30 min at room temperature. Then the volume was made up to 100 μl by adding sterile water containing 5% sucrose, and the solution was mixed gently with vortex 1 min low speed and incubate 5 min at 37° C. and then was proceeded to cell transfection.
Transfection protocol. Protocol is reported for 24 well plate format. Cells were cultured in Dulbecco's Modified Eagle's Medium (DMEM), supplemented with 2 mM glutamine, 1% antibiotics (streptomycin 10,000 μg/mL, penicillin, 10,000 IU/mL) and 10% (w/v) foetal calf serum (FCS), at 37° C. in a humidified atmosphere containing 5% CO2. 24 well plates seeded with 150,000 cells the day prior to transfection were grown to 50-60% confluence and set up to be at about 70% confluences at the time of transfection. Before transfection, cells were washed twice with DMEM. Cells were then overlaid with 0.1 ml of ADGN-peptide/cargo complex solution containing 0.25 μg mRNA, 0.15 μg plasmid DNA or 10-25 nM siRNA, mixed gently, and incubated for 10 min at 37° C. 0.2 mL of fresh DMEM, were added and cells were incubated for 20 min at 37° C. 1 mL of complete DMEM containing 15% FCS were then added in order to reach a final FCS concentration of 10%, without removing the overlay of ADGN-peptide/cargo complexes. Cells were returned to the incubator (37° C., 5% CO2) and 72 hrs post transfection.
ADGN-peptides were evaluated for cellular delivery of siRNA duplex targeting Luciferase in A375/Luc cells. siRNA targeting luciferase (10 and 25 nM) in sterile water (GIBCO) were mixed with ADGN-100, ADGN-100RI, ADGN-106, ADGN-106RI, ADGN-100 Stearyl, ADGN-100Hydro1, ADGN-100Hydro2, ADGN-100Hydro4, ADGN-100Hydro3, ADGN-100Hydro5 and ADGN-100Hydro6. ADGN-peptide/siRNA complexes were filtered with 0.45 μm PES filter. In order to evaluate the stability of the ADGN/siRNA complexes in high serum conditions, the complexes were incubated for 3 hrs in the presence of 25% serum, then A375/Luc cells were transfected and Luciferase expression was monitored at 48 hrs.

| Substance | luciferase expression and tissues (mice) | reduction of ADGN-100 or ADGN-106 efficiency by modification (A375/Luc cells) | reduction of efficiency / siRNA mediated luciferase silencing in the presence of serum (A375/Luc cells) | increase of luciferase expression / efficiency relative to ADGN-100 (mice) | reduction of luciferase expression level (A375/Luc cells; 10 nM siRNA) | reduction of luciferase expression level (A375/Luc cells; 25 nM siRNA) | reduction of level of luciferase (siRNA mediated silencing) (A375/Luc cells; 10 nM siRNA) | reduction of level of luciferase (siRNA mediated silencing) (A375/Luc cells; 25 nM siRNA) |
| --- | --- | --- | --- | --- | --- | --- | --- | --- |
| Ac-GYVS-(G)4-KWRSALWRWRLWRVRSWSR-NH2 (Ac-GYVSGGGGKWRSALWRWRLWRVRSWSR-NH2) [ADGN-100 hydro-2] | negligible luciferase expression |  |  |  |  |  |  |  |
| Ac-GYVS-Aun-KWRSALWRWRLWRVRSWSR-NH2 (Ac-GYVS[Aun]KWRSALWRWRLWRVRSWSR-NH2; SMILES CC(=O)NCC(=O)N[C@@H](Cc1ccc(O)cc1)C(=O)N[C@H](C(=O)N[C@@H](CO)C(=O)NCCCCCCCCCCC(=O)N[C@@H](CCCCN)C(=O)N[C@@H](Cc1c[nH]c2ccccc12)C(=O)N[C@@H](CCCNC(=N)N)C(=O)N[C@@H](CO)C(=O)N[C@@H](C)C(=O)N[C@@H](CC(C)C)C(=O)N[C@@H](Cc1c[nH]c2ccccc12)C(=O)N[C@@H](CCCNC(=N)N)C(=O)N[C@@H](Cc1c[nH]c2ccccc12)C(=O)N[C@@H](CCCNC(=N)N)C(=O)N[C@@H](CC(C)C)C(=O)N[C@@H](Cc1c[nH]c2ccccc12)C(=O)N[C@@H](CCCNC(=N)N)C(=O)N[C@H](C(=O)N[C@@H](CCCNC(=N)N)C(=O)N[C@@H](CO)C(=O)N[C@@H](Cc1c[nH]c2ccccc12)C(=O)N[C@@H](CO)C(=O)N[C@@H](CCCNC(=N)N)C(N)=O)C(C)C)C(C)C) [ADGN-100 hydro-6] | mainly observed in the liver and at lower level in the lung and the kidney | do not affected | 20% | 3.4 fold |  |  |  |  |
| Stearyl-βA-KWRSALWRWRLWRVRSWSR-NH2 (Stearyl-[βAla]KWRSALWRWRLWRVRSWSR-NH2; not fully specified; printed as Stearyl-βA-KWRSALWRWRLWRVRSWSR-NH2) [ADGN-100 Stearyl] | mainly observed in the liver and at lower level in the lung and the kidney | do not affected | 20% | 2.7 fold |  |  |  |  |
| akwllrwlsrwlrwlarwlr ([dA][dK][dW][dL][dL][dR][dW][dL][dS][dR][dW][dL][dR][dW][dL][dA][dR][dW][dL][dR]; also: retro-inverso) [ADGN-106-RI] |  | do not affected | not affected by the presence of serum |  | 77% | 95% |  |  |
| rswsrvrwlrwrwgasrwk ([dR][dS][dW][dS][dR][dV][dR][dW][dL][dR][dW][dR][dW]G[dA][dS][dR][dW][dK]; also: retro-inverso) [ADGN-100-RI] | mainly observed in the liver and at lower level in the lung and the kidney | do not affected | not affected by the presence of serum | 4 fold | 77% | 95% |  |  |
| βAKWRSAGWRWRLW RVRSWSR (AKWRSAGWRWRLWRVRSWSR; N-terminal beta-alanine; VARIANT 1 beta-A) [ADGN-100] | mainly observed in the liver and at lower level in the lung and the kidney |  | 90% |  |  |  | 78% | 93% |
| βALWRALWRLWRSLWRLLWKA ([βAla]LWRALWRLWRSLWRLLWKA) [ADGN-106] | no or minimal expression |  | 90% |  |  |  | 78% | 93% |
